For experiment [1], the system named is GP2D (KRAS G12D). As to the kind of experiment: Cell Proliferation Assay (CellTiter-Glo 2.0), GP2D. The format is cell-based. The settings on record: GP2D (KRAS G12D) cells; 72 hours at 37° C., 5% CO2; read-out: Anti-proliferation IC50, GP2D (KRAS G12D). How it is done: (§1) Two thousand KRAS mutant cells per well are seeded in 384-well white plate and then treated with indicated compounds for 72 hours at 37° C. and 5% CO2. Cell proliferation is measured using CellTiter-Glo 2.0 luciferase-based ATP detection assay (Promega, Madison, WI) following the manufacturer's protocol. IC50 values are determined using Prism software (GraphPad Software, San Diego, CA).
A general note: Cellular ATP, detected with luciferase, serves as a proxy for viable cell number.

For experiment [2], the system named is SW620 (KRAS G12V). Description: Cell Proliferation Assay (CellTiter-Glo 2.0), SW620. The settings on record: Homo sapiens, SW-620; SW620 (KRAS G12V) cells; 72 hours at 37° C., 5% CO2; read-out: Anti-proliferation IC50, SW620 (KRAS G12V). The format is cell-based. The procedure:
as §1

Experimental findings from patent US20260327246A1, “FUSED RING KRAS INHIBITORS FOR TREATING DISEASE” (BLOSSOMHILL THERAPEUTICS, INC., priority 2023, published 2026) are described below.

Each structure is given as a SMILES string. pIC50: −log10 of the molar value.

As for `C#Cc1c(F)ccc2cc(O)cc(-c3nc4c5c(nc(OC[C@@]67CCCN6C[C@H](F)C7)nc5c3F)N3CCCCC3C(C#N)C4)c12` (stereo partly drawn) [compound 28, 5-(8-ethynyl-7-fluoro-3-hydroxynaphthalen-1-yl)-4-fluoro-2-{[(2R,7aS)-2-fluorotetrahydro-1H-pyrrolizin-7a(5H)-yl]methoxy}-8,8a,9,10,11,12-hexahydro-7H-1,3,6,12a-tetraazabenzo[4,5]cyclohepta[1,2,3-de]naphthalene-8-carbonitrile], the values for the pIC50 in experiment [1] and in experiment [2] were 7.21 and 6.10, respectively.

On to `C#Cc1c(F)ccc2cc(O)cc(-c3nc4c5c(nc(OC[C@@]67CCCN6C[C@H](F)C7)nc5c3F)N3CCCCC3C(O)C4)c12` (stereo partly drawn) [compound 29, 5-(8-ethynyl-7-fluoro-3-hydroxynaphthalen-1-yl)-4-fluoro-2-{[(2R,7aS)-2-fluorotetrahydro-1H-pyrrolizin-7a(5H)-yl]methoxy}-8,8a,9,10,11,12-hexahydro-7H-1,3,6,12a-tetraazabenzo[4,5]cyclohepta[1,2,3-de]naphthalen-8-ol], for which the pIC50 in experiment [1] is 7.85; in experiment [2], 6.85.

On to `C#Cc1c(F)ccc2cc(O)cc(-c3nc4c5c(nc(OC[C@@]67CCCN6C[C@H](F)C7)nc5c3F)N3CCCCC3=C4C)c12` [compound 30, 5-ethynyl-6-fluoro-4-(4-fluoro-2-{[(2R,7aS)-2-fluorotetrahydro-1H-pyrrolizin-7a(5H)-yl]methoxy}-7-methyl-8,9,10,11-tetrahydropyrido[1,2-g]pyrimido[4,5,6-de][1,6]naphthyridin-5-yl)naphthalen-2-ol], for which the pIC50 in experiment [1] was 6.09; in experiment [2], 5.76.

In the case of `CCc1c(F)ccc2cc(O)cc(-c3nc4c5c(nc(OC[C@@]67CCCN6C[C@H](F)C7)nc5c3F)N3CCCCC3C=C4)c12` (stereo partly drawn) [compound 31, 5-ethyl-6-fluoro-4-(4-fluoro-2-{[(2R,7aS)-2-fluorotetrahydro-1H-pyrrolizin-7a(5H)-yl]methoxy}-9,10,11,12-tetrahydro-8aH-1,3,6,12a-tetraazabenzo[4,5]cyclohepta[1,2,3-de]naphthalen-5-yl)naphthalen-2-ol], the pIC50 in experiment [1] is 6.87; in experiment [2], 6.23.

On to `C=Cc1c(F)ccc2cc(O)cc(-c3nc4c5c(nc(OC[C@@]67CCCN6C[C@H](F)C7)nc5c3F)N3CCCCC3C(C#N)C4)c12` (stereo partly drawn) [compound 32, 5-(8-ethenyl-7-fluoro-3-hydroxynaphthalen-1-yl)-4-fluoro-2-{[(2R,7aS)-2-fluorotetrahydro-1H-pyrrolizin-7a(5H)-yl]methoxy}-8,8a,9,10,11,12-hexahydro-7H-1,3,6,12a-tetraazabenzo[4,5]cyclohepta[1,2,3-de]naphthalene-8-carbonitrile], for which the pIC50 in experiment [1] is 6.34; in experiment [2] it was 5.69.
